The values that follow come from patent publication US20080146641A1, “ANTIBACTERIAL COMPOSITION” (priority 2001, published 2008).

In data set [1] the test system is Escherichia coli IFO 3301. The data set can be described thus: Minimum inhibitory concentration, agar plate for measuring susceptibility. The format is cell-based. The settings on record: for MIC: Escherichia coli, IFO3301, read-out: Minimum Inhibitory Concentration CaO, Escherichia coli IFO 3301 (Gram-negative bacteria).
Data set [2] deals with Staphylococcus aureus IFO 12732. The data set is described as above. Type of data set: cell-based. The settings on record: for MIC: Staphylococcus aureus, IFO12732, read-out: Minimum Inhibitory Concentration CaO, Staphylococcus aureus IFO 12732 (Gram-positive bacteria).
The test system of data set [3] is Salmonella entriditis IFO 3313. The data set can be described thus: Antibacterial spectrum, MIC on Muller Hinton Agar. The format is cell-based, Salmonella enteritidis. Particulars: Comparison 1 is a reference value (suspension at not less than 1400 μg).
The subject of data set [4] is Pseudomonas aeruginosa IFO 13275. The data set is described as follows: Antibacterial spectrum, MIC on Muller Hinton Agar. Type of data set: cell-based. The settings on record: Comparison 1 is a reference value (suspension at not less than 1400 μg).
Data set [5] deals with Enterococcus faecalis IFO 129B4. The data set is described as follows: Antibacterial spectrum, MIC on Muller Hinton Agar. The format is cell-based. The settings on record: Comparison 1 is a reference value (suspension at not less than 1400 μg).
Data set [6] relates to Bacillus cereus IFO 13494. The data set is described as follows: Antibacterial spectrum, MIC on Muller Hinton Agar. Particulars: Comparison 1 is a reference value (suspension at not less than 1400 μg). Type of data set: cell-based.
The test system of data set [7] is Lactobacillus plantarum (lactic acid bacterium) IFO 3070. The data set can be described thus: Antibacterial spectrum, MIC on Brain Heart Infusion Agar. The format is cell-based. The settings on record: Comparison 1 is a reference value.
The subject of data set [8] is Clostridium perfingens NCTC 8283. The format is cell-based, Clostridium perfringens. Particulars: Comparison 1 is a reference value (suspension at not less than 1400 μg).
For data set [9], the system named is Saccharomyces cerevisiae IFO 1950. The data set can be described thus: Antibacterial spectrum, MIC on Sabouraud Glucose agar medium. Particulars: Comparison 1 is a reference value. The format is cell-based. The method, then:
[…] Additionally, as to the other α-amino acids used as the raw materials, flat plates for measuring susceptibility each of which contains a 500 to 20,000 μg/ml α-amino acid were prepared. […] The bacterial liquid for inoculation was drawn In lines and painted 1 to 2 cm on each flat plate for measuring susceptibility with a plastic loop, and incubated at 35° C. 1° C. for 18 to 20 hours. The lowest concentrations in which the painted parts were blocked to grow were defined as the minimum bacteriostasis concentrations of the antibacterial compositions, and the calcium oxide, the calcium hydroxide, and the α-amino acids used as the raw materials in the embodiments 1 through 16.
The minimum inhibitory concentrations to these typical kinds of bacteria were measured, however, the antibacterial compositions of the present invention are not to be restricted to the kinds of bacteria shown in the embodiments. Although the measuring method was similar to that of the embodiment 17, as the culture media for measuring susceptibility, Muller Hinton Agar (Difco) was used for enterococcus, cereus, salmonella, and pseudomonas aeruginosa; Brain Heart Infusion Agar (Difco) was used for lactobacillus; GAM agar medium (Nissui Pharmaceutical Co., Ltd.) was used for welsh; and Sabouraud Glucoss agar medium (Eiken Chemical Co., Ltd.) was used for saccharomyces.

The conditions of data set [10]: cited from earlier work.
Data set [11] can be described thus: Antibacterial effect, test not described.
The mark [12] stands for this setting: Table 2, raw materials, amino acid plates held 500 to 20,000 μg/ml α-amino acid.

Values after ≈ are worked out from the molar mass of the structure shown. Like-named read-outs stand apart in the source and are kept apart here.

Turning to `[O]=[Ca]` [Comparison 1, calcium oxide], the “Minimum Inhibitory Concentration CaO; Escherichia coli IFO 3301 (Gram-negative bacteria)” value in [1] (setting [12]) turned out to be 1250 µg/mL. Besides, the “Minimum Inhibitory Concentration CaO; Staphylococcus aureus IFO 12732 (Gram-positive bacteria)” value in [2] (setting [12]) amounted to 1000 µg/mL. In addition, the “Minimum Inhibitory Concentration CaO, Salmonella enteritidis” value in data set [3] turned out to be 2500 µg/mL. Besides, the “Minimum Inhibitory Concentration CaO, Pseudomonas aeruginosa” value in data set [4] was 2500 µg/mL. Further, the “Minimum Inhibitory Concentration CaO, Enterococcus faecalis” value in [5] turned out to be 5000 µg/mL. Also, the “Minimum Inhibitory Concentration CaO, Bacilluscereus” value in data set [6] came to 2500 µg/mL. For the same molecule, the “Minimum Inhibitory Concentration CaO, Lactobachillus faecalis” value in [7] came to 313 µg/mL. The “Minimum Inhibitory Concentration CaO, Clostridium perfringens” value in [8] was found to be 5000 µg/mL. Also, in data set [9], the “Minimum Inhibitory Concentration CaO, Saccgaromyces cervisiae” value was determined as 625 µg/mL. Also, the dissolves in water in data set [10] (20° C.) is listed as 0.14 wt %. Further, in [10] (at 20° C.), the water-solubility is given as 1400 μg/gH2O.

On to `[Ca+2].[OH-].[OH-]` [Comparison 2, calcium hydroxide], for which the “Minimum Inhibitory Concentration CaO; Escherichia coli IFO 3301 (Gram-negative bacteria)” value in data set [1] turned out to be 900 µg/mL. In addition, the “Minimum Inhibitory Concentration CaO; Staphylococcus aureus IFO 12732 (Gram-positive bacteria)” value in [2] amounted to 850 µg/mL.

On to `NCC(=O)O` [Comparison 3, glycine], for which the MIC in [1] (setting [12]) and in data set [2] (setting [12]) was over 10000 µg/mL each time.

For the molecule `C[C@H](N)C(=O)O` [Comparison 4, alanine], the MIC in [1] (setting [12]) and in data set [2] (setting [12]) was over 10000 µg/mL each time.

For `CC(C)[C@H](N)C(=O)O` [Comparison 5, valine], the MIC in data set [1] (setting [12]) and in data set [2] (setting [12]) was over 10000 µg/mL throughout.

In the case of `CC(C)C[C@H](N)C(=O)O` [Comparison 6, leucine], the MIC in data set [1] (setting [12]) and in data set [2] (setting [12]) was over 10000 µg/mL each time.

For the molecule `CC[C@H](C)[C@H](N)C(=O)O` [Comparison 7, isoleucine], the MIC in data set [1] (setting [12]) and in [2] (setting [12]) was over 10000 µg/mL throughout.

For `C[C@@H](O)[C@H](N)C(=O)O` [Comparison 8, threonine], the MIC in data set [1] (setting [12]) and in [2] (setting [12]) was over 20000 µg/mL in each case.

Regarding `N[C@@H](CSSC[C@H](N)C(=O)O)C(=O)O` [Comparison 9, cystine], the MIC in [1] (setting [12]) was over 20000 µg/mL; in [2] (setting [12]), 20000 µg/mL (≈ 83.2 mM).

`CSCC[C@H](N)C(=O)O` [Comparison 10, Methionine]: the MIC in data set [1] (setting [12]) and in data set [2] (setting [12]) was over 10000 µg/mL in each case.

In the case of `NC(=O)C[C@H](N)C(=O)O` [Comparison 11, asparagine], the MIC in data set [1] (setting [12]) and in data set [2] (setting [12]) was over 20000 µg/mL each time.

For `NC(=O)CC[C@H](N)C(=O)O` [Comparison 12, glutamine], the MIC in data set [1] (setting [12]) and in data set [2] (setting [12]) was over 20000 µg/mL each time.

For `N[C@@H](Cc1c[nH]cn1)C(=O)O` [Comparison 14, hystidine], in [1] (setting [12]), the “Minimum Inhibitory Concentration CaO; Escherichia coli IFO 3301 (Gram-negative bacteria)” value was over 20000 µg/mL. For the same molecule, the “Minimum Inhibitory Concentration CaO; Staphylococcus aureus IFO 12732 (Gram-positive bacteria)” value in data set [2] (setting [12]) was over 20000 µg/mL.

Turning to `N[C@@H](CC(=O)[O-])C(=O)[O-].[Ca+2]` [aspartate calcium], in data set [11], the “antibacterial effect / antibacterial property” value was “did not have antibacterial property”.

Consider `N[C@@H](CCC(=O)[O-])C(=O)[O-].[Ca+2]` [calcium glutamate], for which the “antibacterial effect / antibacterial property” value in data set [11] is on record as “did not have antibacterial property”.
